Measured values reported in ChEMBL document CHEMBL1155303, “Multiple strategies for the preparation of a sulfur-35 labeled NPC1L1 radioligand” (Bioorg Med Chem Lett, 2009).

Key:
[1] = target: NPC1-like intracellular cholesterol transporter 1 (Mus musculus, UniProt Q6T3U4); assay: (§1) Displacement of [35S](2S,3S,4S,5R,6S)-6-(4-((2S,3R)-3-((S)-3-(4-fluorophenyl)-3-hydroxypropyl)-1-(4-(3-(methylsulfonamido)prop-1-ynyl)phenyl)-4-oxoazetidin-2-yl)phenoxy)-3,4,5-trihydroxytetrahydro-2H-pyran-2-carboxylic acid from recombinant mouse NPC1L1 expressed in HEK cells by single tube filtration assay; format: cell-based, HEK293
Chain of NPC1-like intracellular cholesterol transporter 1 (Mus musculus, UniProt Q6T3U4) (Q6T3U4 21-1333 limits assumed): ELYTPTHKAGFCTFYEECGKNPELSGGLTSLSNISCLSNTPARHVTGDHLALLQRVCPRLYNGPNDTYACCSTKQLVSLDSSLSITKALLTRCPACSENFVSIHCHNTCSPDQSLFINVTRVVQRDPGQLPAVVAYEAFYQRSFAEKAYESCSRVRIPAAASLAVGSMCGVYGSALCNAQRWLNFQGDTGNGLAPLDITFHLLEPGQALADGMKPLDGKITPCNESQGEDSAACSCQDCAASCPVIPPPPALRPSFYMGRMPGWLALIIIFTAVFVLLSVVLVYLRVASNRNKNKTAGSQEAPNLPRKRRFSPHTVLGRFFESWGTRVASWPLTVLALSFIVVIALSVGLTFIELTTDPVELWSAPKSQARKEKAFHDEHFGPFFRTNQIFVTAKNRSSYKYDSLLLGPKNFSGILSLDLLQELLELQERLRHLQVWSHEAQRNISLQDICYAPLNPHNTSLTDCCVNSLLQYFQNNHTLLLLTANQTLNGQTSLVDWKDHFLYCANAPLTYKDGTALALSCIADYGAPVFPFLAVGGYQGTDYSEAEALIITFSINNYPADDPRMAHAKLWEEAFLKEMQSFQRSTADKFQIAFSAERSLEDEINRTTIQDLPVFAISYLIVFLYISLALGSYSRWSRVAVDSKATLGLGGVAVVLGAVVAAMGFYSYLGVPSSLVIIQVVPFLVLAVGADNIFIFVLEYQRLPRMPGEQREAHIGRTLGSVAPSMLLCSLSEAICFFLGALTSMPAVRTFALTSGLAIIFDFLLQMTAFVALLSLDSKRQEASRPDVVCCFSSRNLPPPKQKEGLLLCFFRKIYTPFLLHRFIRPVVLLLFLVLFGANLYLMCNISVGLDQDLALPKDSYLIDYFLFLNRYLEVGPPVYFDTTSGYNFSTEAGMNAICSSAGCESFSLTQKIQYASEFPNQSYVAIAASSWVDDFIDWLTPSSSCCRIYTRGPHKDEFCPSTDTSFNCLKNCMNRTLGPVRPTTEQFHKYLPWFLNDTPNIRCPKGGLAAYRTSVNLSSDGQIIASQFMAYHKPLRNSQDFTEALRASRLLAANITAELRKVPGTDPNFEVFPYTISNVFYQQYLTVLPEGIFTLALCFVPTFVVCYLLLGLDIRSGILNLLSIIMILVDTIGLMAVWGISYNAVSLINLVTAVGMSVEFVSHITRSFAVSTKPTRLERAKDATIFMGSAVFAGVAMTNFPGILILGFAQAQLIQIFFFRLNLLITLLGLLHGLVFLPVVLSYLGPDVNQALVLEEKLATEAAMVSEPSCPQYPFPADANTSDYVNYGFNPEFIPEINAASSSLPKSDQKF

[2] = target: T1, NPC1-like intracellular cholesterol transporter 1 (Rattus norvegicus, UniProt Q6T3U3); assay: as §1, with “rat intestinal brush border membrane” for “recombinant mouse”, “NPC1L1” for “NPC1L1 expressed in HEK cells”
T1 sequence (Q6T3U3 21-1331 limits assumed): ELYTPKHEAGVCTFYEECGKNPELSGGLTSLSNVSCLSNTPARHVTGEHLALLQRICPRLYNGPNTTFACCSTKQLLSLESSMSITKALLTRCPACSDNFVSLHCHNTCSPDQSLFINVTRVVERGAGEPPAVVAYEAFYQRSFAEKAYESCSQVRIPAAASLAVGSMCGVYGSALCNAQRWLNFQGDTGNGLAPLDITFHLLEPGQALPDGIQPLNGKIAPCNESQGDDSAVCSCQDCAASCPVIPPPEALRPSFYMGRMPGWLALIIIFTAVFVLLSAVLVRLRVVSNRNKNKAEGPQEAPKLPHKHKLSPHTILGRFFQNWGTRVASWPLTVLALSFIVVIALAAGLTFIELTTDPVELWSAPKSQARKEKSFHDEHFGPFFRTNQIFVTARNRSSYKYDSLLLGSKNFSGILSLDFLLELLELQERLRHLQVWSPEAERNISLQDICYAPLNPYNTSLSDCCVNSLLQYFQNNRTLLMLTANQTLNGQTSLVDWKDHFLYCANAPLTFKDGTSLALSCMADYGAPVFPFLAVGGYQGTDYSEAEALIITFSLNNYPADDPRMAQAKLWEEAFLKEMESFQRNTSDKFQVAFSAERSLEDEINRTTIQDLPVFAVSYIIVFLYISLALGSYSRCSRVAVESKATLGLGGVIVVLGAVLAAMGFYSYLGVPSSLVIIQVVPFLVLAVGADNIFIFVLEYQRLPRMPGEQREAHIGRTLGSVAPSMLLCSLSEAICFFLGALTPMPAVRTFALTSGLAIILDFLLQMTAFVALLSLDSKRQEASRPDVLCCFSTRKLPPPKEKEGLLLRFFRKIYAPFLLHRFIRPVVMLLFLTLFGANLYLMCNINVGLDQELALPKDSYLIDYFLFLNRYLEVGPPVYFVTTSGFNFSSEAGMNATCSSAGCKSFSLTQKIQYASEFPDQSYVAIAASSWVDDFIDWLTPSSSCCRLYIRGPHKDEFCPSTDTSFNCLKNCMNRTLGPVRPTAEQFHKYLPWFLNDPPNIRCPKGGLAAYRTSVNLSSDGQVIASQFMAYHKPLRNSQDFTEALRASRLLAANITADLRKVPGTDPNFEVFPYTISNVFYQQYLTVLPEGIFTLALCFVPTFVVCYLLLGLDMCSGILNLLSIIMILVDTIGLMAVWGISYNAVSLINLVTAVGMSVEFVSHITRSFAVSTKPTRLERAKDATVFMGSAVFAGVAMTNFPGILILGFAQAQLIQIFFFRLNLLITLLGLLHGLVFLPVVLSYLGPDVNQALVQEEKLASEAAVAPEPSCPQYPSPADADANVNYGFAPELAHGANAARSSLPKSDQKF

[3] = target: T2, NPC1-like intracellular cholesterol transporter 1 (Homo sapiens, UniProt Q9UHC9); assay: as §1, with “human intestinal brush border membrane” for “recombinant mouse”, “NPC1L1” for “NPC1L1 expressed in HEK cells”
T2 sequence (Q9UHC9 whole entry): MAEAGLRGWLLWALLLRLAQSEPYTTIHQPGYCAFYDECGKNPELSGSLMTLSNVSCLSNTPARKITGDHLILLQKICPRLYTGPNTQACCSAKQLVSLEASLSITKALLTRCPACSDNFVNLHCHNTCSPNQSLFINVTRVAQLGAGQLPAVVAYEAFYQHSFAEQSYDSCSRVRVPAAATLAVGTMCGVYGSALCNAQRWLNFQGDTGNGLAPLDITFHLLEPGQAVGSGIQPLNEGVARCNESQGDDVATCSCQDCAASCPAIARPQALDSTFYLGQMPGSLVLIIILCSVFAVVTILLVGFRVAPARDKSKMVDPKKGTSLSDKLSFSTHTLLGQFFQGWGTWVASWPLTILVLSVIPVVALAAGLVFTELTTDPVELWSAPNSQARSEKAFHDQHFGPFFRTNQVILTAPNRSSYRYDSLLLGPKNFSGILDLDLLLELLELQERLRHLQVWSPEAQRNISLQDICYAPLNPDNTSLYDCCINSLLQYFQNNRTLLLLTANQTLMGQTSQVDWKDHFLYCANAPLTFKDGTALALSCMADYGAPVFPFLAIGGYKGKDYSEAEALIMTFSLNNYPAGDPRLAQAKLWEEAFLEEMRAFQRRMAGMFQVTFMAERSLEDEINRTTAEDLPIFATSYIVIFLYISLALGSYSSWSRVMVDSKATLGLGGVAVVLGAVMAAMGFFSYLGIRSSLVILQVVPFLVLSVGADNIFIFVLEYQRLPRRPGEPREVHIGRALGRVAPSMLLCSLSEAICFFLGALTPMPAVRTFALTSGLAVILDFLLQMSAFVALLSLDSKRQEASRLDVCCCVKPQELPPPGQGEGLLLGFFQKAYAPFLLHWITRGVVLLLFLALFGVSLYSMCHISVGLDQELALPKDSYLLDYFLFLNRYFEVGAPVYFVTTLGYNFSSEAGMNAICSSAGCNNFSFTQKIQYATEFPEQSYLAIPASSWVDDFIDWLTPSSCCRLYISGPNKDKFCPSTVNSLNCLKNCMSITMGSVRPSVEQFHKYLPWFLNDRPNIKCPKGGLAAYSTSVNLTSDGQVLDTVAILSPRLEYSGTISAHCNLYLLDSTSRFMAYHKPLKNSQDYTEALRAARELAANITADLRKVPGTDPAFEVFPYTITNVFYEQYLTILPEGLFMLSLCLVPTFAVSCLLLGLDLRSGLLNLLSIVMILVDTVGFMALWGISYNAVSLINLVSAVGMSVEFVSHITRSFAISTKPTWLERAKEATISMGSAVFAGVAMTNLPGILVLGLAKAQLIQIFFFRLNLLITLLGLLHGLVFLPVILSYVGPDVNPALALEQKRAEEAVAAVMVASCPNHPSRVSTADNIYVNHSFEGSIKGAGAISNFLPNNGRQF

[4] = target: T2, NPC1-like intracellular cholesterol transporter 1; assay: as §1, with “human” for “mouse”; format: cell-based, HEK293
[5] = target: T1, NPC1-like intracellular cholesterol transporter 1; assay: as §1, with “rat” for “mouse”; format: cell-based, HEK293

IC50 [1]: 44 nM | IC50 [2]: 4 nM | IC50 [3]: 4 nM | IC50 [4]: 4 nM | IC50 [5]: 4 nM
Structure (SMILES): C[35S](=O)(=O)NCC#Cc1ccc(N2C(=O)[C@H](CC[C@H](O)c3ccc(F)cc3)[C@H]2c2ccc(O[C@@H]3O[C@H](C(=O)O)[C@@H](O)[C@H](O)[C@H]3O)cc2)cc1
